From patent US7349080B2, “Label-independent detection of unpurified analytes” (Corning Incorporated, priority 2004, dated 2008)

Assay: Label-independent detection (LID) of binding to immobilized biotin on a grating-coupled waveguide microplate
From the text: A label-independent detection (LID) system developed by Corning Inc. was used to evaluate interactions between unlabeled streptavidin and immobilized biotin. This LID system is comprised of a multi-well optical reader and a disposable microplate (e.g., a 96- or 384-well microplate). Each well of the microplate contains a grating-coupled waveguide for evanescent field sensing. The sensing surface has a surface chemistry layer allowing for attachment of molecules that contain primary amine groups (e.g., biotin-amine). As streptavidin or other analytes of interest bind to the sensing surface, the refractive index at the surface is changed. An optical mode propagates and senses the refractive index changes close to the sensing surface. Only light that is “resonant” is strongly reflected, and the exact wavelength of the resonance is a sensitive function of the refractive index at the surface of the sensor. In a typical operation, a baseline read of the microplate is first established. Addition of a binding partner results in a change in refractive index at the sensing surface, which is indicated as picometer (pm) shift from baseline. Each microplate is read on the optical reader before, during, and after the addition of the binding partner. Resonant wavelength shift (“Response (pm)”) is plotted as a function of time. Cell lysate was prepared by diluting a 2 mg/ml stock to 100 μg/ml final concentration. A Corning 96-well clear polystyrene non-treated flat bottom plate (Corning catalog # 3370) was used for source plate preparation. To facilitate efficient pickup of the sample solutions by a multi-channel robotic pipettor in the LID instrument, each well of the source plate contained extra solution. A solution of 1× phosphate buffered saline (PBS; 1 mM KH2PO4, 10 mM Na2HPO4, 137 mM NaCl, and 2.7 mM KCl) was used as a first addition step for baseline measure. […] Interactions between purified streptavidin and immobilized biotin were first evaluated (FIG. 2). […] PBS was added to establish a baseline read (before point A). […]

## NCCO [Ethanolamine, ethanolamine]
Ethanolamine in borate buffer, between points B and C, corrected response curve, FIG. 3
  binding to the target area: did not appear to bind to the target area

## streptavidin
PBS wash after point C, corrected response curve, FIG. 3
  effect of post wash on binding of streptavidin to biotin: did not disrupt the binding
Purified streptavidin 200 nM in 1x PBS, between points A and B, FIG. 2
  bulk index shift (Response (pm)) due to binding to the immobilized biotin: increase in the bulk index
